Measurements from patent US12492373B2, “Production method for nerve tissue” (Racthera Co., Ltd., priority 2014, dated 2025).

Legend:
[1] = system: human iPS cells (Ff-I01 strain); test: Neural tissue / neuroepithelium formation in cell aggregates, bright field observation; type: cell-based; conditions: StemFit AK03N; SAG 300 nM for 24, 48, 72 or 96 hr in step 1, SAG 500 nM in step 2, BMP4 1.5 nM; day 19
Description: At the time of the start of suspension culturing (day 0 after the start of suspension culturing, […]), Y27632 ([…]) were added to the above serum-free medium (FIG. 22). By day 2 after the start of suspension culturing, a cell aggregate was formed (step 2 completed, step 3 start) under any conditions. On day 3 or later from the start of suspension culturing, BMP4 was added under 3 conditions including the following conditions 1-3. • Condition 1: (+BMP4 addition once) On day 3 of suspension culturing, a medium (50 μl) free of Y27632 and SAG, and containing human recombinant BMP4 (manufactured by R&D) was added such that the final concentration of exogenous human recombinant BMP4 was 1.5 nM (55 ng/ml). On day 6 or later from the start of suspension culturing, a half amount of the medium was changed to a serum-free medium free of Y27632, SAG and human recombinant BMP4. • Condition 2: (+BMP4 addition twice) On day 3 of suspension culturing, a medium (50 μl) free of Y27632, SAG and containing human recombinant BMP4 (manufactured by R&D) was added such that the final concentration of exogenous human recombinant BMP4 was 1.5 nM (55 ng/ml). On day 6 from the start of suspension culturing, 50 μl of the medium was discarded, and 50 μl of a medium free of Y27632 and SAG and containing human recombinant BMP4 (manufactured by R&D) was added to maintain the final concentration of exogenous human recombinant BMP4 at 1.5 nM (55 ng/ml). On day 9 or later from the start of suspension culturing, a half amount of the medium was changed with a serum-free medium free of Y27632, SAG, and human recombinant BMP4. • Condition 3: (+BMP4 addition three times) On day 3 of suspension culturing, a medium (50 μl) free of Y27632, SAG and containing human recombinant BMP4 (manufactured by R&D) was added such that the final concentration of exogenous human recombinant BMP4 was 1.5 nM (55 ng/ml). On days 6 and 9 from the start of suspension culturing, 50 μl of the medium was discarded, and 50 μl of a medium free of Y27632 and SAG and containing human recombinant BMP4 (manufactured by R&D) was added to maintain the final concentration of exogenous human recombinant BMP4 at 1.5 nM (55 ng/ml). On day 12 or later from the start of suspension culturing, a half amount of the medium was changed with a serum-free medium free of Y27632, SAG and human recombinant BMP4. […]
On day 3 after the start of suspension culturing, a medium (50 μl) free of Y27632 and SAG, and containing human recombinant BMP4 (manufactured by R&D) was added such that the final concentration of exogenous human recombinant BMP4 was 1.5 nM (55 ng/ml) or 5 nM (183 ng/ml). […]

[2] = system: human iPS cells (Ff-I01 strain); test: Immunostaining of aggregate sections for retinal tissue marker Chx10; type: cell-based; conditions: StemFit AK03N, day 19
Source text: Cell aggregates on day 16 after the start of suspension culturing were fixed with 4% para-formaldehyde to prepare frozen sections. These frozen sections were immunostained for Chx10 (anti-Chx10 antibody, Exalpha, sheep), which is one of the retinal tissue markers. These immunostained sections were observed under a fluorescence microscope.
Cell aggregates on day 16 after the start of suspension culturing were fixed with 4% para-formaldehyde to prepare frozen sections. These frozen sections were immunostained for Chx10 (anti-Chx10 antibody, Exalpha, sheep), which is one of the retinal tissue markers, and observed under a fluorescence microscope. […] In addition, the proportion of Chx10-positive cells in the total cells is about 80% under conditions with the addition of BMP4 twice to maintain the final concentration of 5 nM (FIG. 23, D)
The cell aggregates on day 19 after the start of suspension culturing were fixed with 4% para-formaldehyde to prepare frozen sections. These frozen sections were immunostained for Chx10 (anti-Chx10 antibody, Exalpha, sheep), which is one of the retinal tissue markers. These immunostained sections were observed under an inverted fluorescence microscope. As a result, the proportion of Chx10-positive cells in the total cells is about 70% under conditions with the addition of BMP4 twice to maintain the final concentration of 1.5 nM ([…]). In addition, the proportion of Chx10-positive cells in the total cells is about 90% under conditions with the addition of BMP4 twice to maintain the final concentration of 5 nM (FIG. 34, D).
The thus-prepared cell aggregates on day 19 after the start of suspension culturing were fixed with 4% para-formaldehyde to prepare frozen sections. These frozen sections were immunostained for Chx10 (anti-Chx10 antibody, Exalpha, sheep), which is one of the retinal tissue markers, and observed under a fluorescence microscope.

`CNC1CCC(N(Cc2cccc(-c3ccncc3)c2)C(=O)c2sc3ccccc3c2Cl)CC1` (stereo not drawn) [SAG] was tested, and the “cell aggregate growth and neuroepithelium formation” value [1] was “neuroepithelium can be formed efficiently”, the “proportion of Chx10-positive cells in the total cells” value ([2]; SAG 300 nM for 48, 72 or 96 hr in step 1, SAG 500 nM in step 2, BMP4 1.5 nM) was “about 80%” and the “proportion of Chx10-positive cells in the total cells” value ([2]; SAG 300 nM for 24 hr in step 1, SAG 500 nM in step 2, BMP4 1.5 nM) was “about 10%”.
